{"source": "paper PMC10302146", "about": "“Dual Anta-Inhibitors Targeting Protein Kinase CK1δ and A2A Adenosine Receptor Useful in Neurodegenerative Disorders” (Molecules, 2023)", "key": {"[1]": {"biological_target": "human recombinant A3AR", "parameters": "method as in PMID 37259317", "conditions": "[3H]HEMADO, membranes from CHO cells stably transfected; means ± standard errors; read-out: KiA3; cited from earlier work"}, "[2]": {"tested_on": "N13 microglial cells", "assay": "N13 cell viability, ligand pretreatment 60 min then CK cocktail 48 h (CK1δ inhibition protocol)", "format": "cell-based", "conditions": "for cell vitality: CK cocktail alone 69% ± 0.3 vs. control"}, "[3]": {"biological_target": "human recombinant A1AR", "parameters": "method as in PMID 37259317", "conditions": "[3H]CCPA, membranes from CHO cells stably transfected; means ± standard errors; read-out: KiA1; cited from earlier work"}, "[4]": {"tested_on": "CK1δ", "parameters": "method as in PMID 37259317", "conditions": "cited from earlier work; for IC50: enzymatic inhibition"}, "[5]": {"biological_target": "human recombinant A2AAR", "parameters": "method as in PMID 37259317", "conditions": "cited from earlier work; for Ki: [3H]NECA, membranes from CHO cells stably transfected, means ± standard errors, read-out: KiA2A"}, "[6]": {"tested_on": "N13 microglial cells", "assay": "N13 cell viability (CellTiter 96 AQueous One, MTS), ligands alone", "format": "cell-based", "conditions": "for cell viability: 60 min, alone", "description": "Starting from these observations, since this double effect could be a suitable strategy for the treatment of chronic neurodegenerative diseases, in which neuroinflammation plays a crucial role, these compounds were tested on an in vitro model of neuroinflammation in comparison with the reference compounds. The experiments were performed using N13 microglial cells. The colorimetric method CellTiter 96® AQueous One Solution Cell Proliferation assay was used to determine the number of live cells in cytotoxicity or proliferation assays. The tetrazole compound MTS was bio-reduced by the cells into formazan, a colored product soluble in the cellular medium. The percentage of cell viability was analyzed through an absorbance reading at 492 nm. The concentrations of ligands were chosen based on the results of binding assays. Specifically, lower, similar, and higher concentrations than the Ki value were used.\nExperiments were performed in triplicate."}, "[7]": {"tested_on": "N13 cell line", "assay": "Griess assay, nitrite production (antioxidant effect)", "format": "cell-based", "conditions": "compound 2 4500 nM, ZM241385 10 nM", "text": "In addition, since oxidative stress has received extensive attention as one important entry point in the pathogenesis of neurodegenerative diseases, the potential antioxidant profile of compounds 1 and 2 was investigated. Oxidative stress and neuroinflammation play synergistic roles in the promotion of neurodegenerative disease progression. During a CNS insult, there is an activation of microglial cells, which stimulate immune responses to instigate tissue repair. If the triggering cause of the immune response is eradicated, the immune response resolves, but if the initial stress persists, it will lead to an overproduction of neurotoxic factors such as chemokines and proinflammatory cytokines such as Tumor Necrosis Factor-α (TNF-α) and Interleukin-1β (IL-1β). This pathological state will lead to an overproduction of ROS and a state of oxidative stress. High levels of ROS inactivate or damage proteins, leading to cellular degeneration and death. Furthermore, ROS can activate proinflammatory pathways, further promoting a harmful environment for vulnerable neurons. In light of this, the potential antioxidant capacity of compounds was studied. […] The combination of anti-inflammatory and antioxidant activities makes compound 2 particularly appealing in counteracting two of the factors involved in the pathogenesis of neurodegenerative pathologies.\nThe N13 cell line was introduced into a 96-well UV-VIS transparent plate at a population of 1 × 10^4 cells per well in 98 μL of DMEM and incubated overnight. […] After 24 h of incubation, the media from each well was transferred into another 96-well plate, and then 50 µL of the sulphanilamide solution was placed into the wells. After 10 min of incubation at room temperature (rt), 50 µL of the NED solution was dispensed to all wells, and the plate was incubated at rt for an additional 5–10 min. After half an hour, absorbance was measured in the microplate reader GENiosPro using a 520–550 nm filter. All measurements were reproduced in 3–5 replicates. The nitric oxide formation was investigated by measuring nitrite (NO^2−), which is one of two primary breakdown products of NO. A nitrite standard reference curve was used for quantitative evaluation of the concentration of NO^2− in samples."}, "[8]": {"tested_on": "N13 microglial cells", "assay": "N13 cell viability, CK cocktail 48 h pretreatment then ligand (A2AAR antagonist protocol)", "conditions": "60 min", "description": "Given the nature of compounds, dual A2A/CK1δ anta-inhibitors, their neuroprotective effect against a neuroinflammatory insult was investigated following two different approaches aimed at studying the antagonist activity on the A2AAR and the inhibitor effect on CK1δ. […] The concentrations used were 35, 65, and 400 µM at 60 min of incubation.\nN13 cells were plated in 96-well plates at the confluence of 1 × 10^4 cells/well and incubated overnight. Cells were divided into two groups in order to study the activity of compounds on A2AAR and CK1δ (Scheme 1). […] Cells of the second group were pretreated with 2 µL at different concentrations of understudy ligand, or the reference compound PF670462, for 30 or 60 min and then with further addition of a proinflammatory cocktail of cytokines for 48 h (Scheme 1). After treatment, 20 µL of CellTiter 96® AQueous One Solution Reagent was added to each well to a final volume of 100 µL. After 1 h of incubation, absorbance was measured at 492 nm in the microplate reader GENiosPro. Cell viability was estimated as the relation between the OD of treated cells and the OD of untreated cells in percentage. An untreated control and a control with the solvent were run. Experiments were performed in triplicate."}}, "data": [{"smiles": "Nc1nc(Cl)nc2c1nc(-c1ccco1)n2C1CCCC1", "note": "[compound 4, 2-chloro-9-cyclopentyl-8-(furan-2-yl)-9H-purin-6-amine]", "values": [{"measurement": "Ki", "setting": "[1]", "result": "5960 ± 1020", "unit": "nM"}, {"measurement": "viability at 25 µM", "setting": "[2]; N13, 25 µM 60 min before CK cocktail 48 h, CK cocktail alone 78% 1.3 vs. control (Figure 7)", "result": 108, "unit": "%"}, {"measurement": "viability at 50 µM", "setting": "[2]; N13, 50 µM 60 min before CK cocktail 48 h, CK cocktail alone 78% 1.3 vs. control", "result": 102, "unit": "%"}, {"measurement": "viability at 500 µM", "setting": "[2]; N13, 500 µM 60 min before CK cocktail 48 h, CK cocktail alone 78% 1.3 vs. control", "result": 90, "unit": "%"}, {"measurement": "Ki", "setting": "[3]", "result": "8660 ± 1520", "unit": "nM"}, {"measurement": "% Residual Activity at 10 μM ± sd", "setting": "[4]; 10 μM", "result": "13 ± 24", "unit": "%"}, {"measurement": "% Residual Activity at 40 μM ± sd", "setting": "[4]", "result": "25 ± 9.6", "unit": "%"}, {"measurement": "IC50", "setting": "[4]", "result": "360 ± 100", "unit": "nM"}, {"measurement": "Ki", "setting": "[5]", "result": "3480 ± 312", "unit": "nM"}, {"measurement": "A2AAR antagonism, in words", "setting": "[5]", "result": "inactive as an A2AAR antagonist"}]}, {"smiles": "Nc1nccc(-c2c(-c3ccc(F)cc3)ncn2C2CCCCC2)n1", "note": "[PF-670462, reference compound]", "values": [{"measurement": "cell viability", "setting": "[6]; 0.05 µM", "result": "does not affect cell viability"}, {"measurement": "cell viability", "setting": "[6]; 0.1 µM", "result": "75% ± 1.4"}, {"measurement": "cell viability", "setting": "[6]; 1 µM", "result": "60% ± 2.9"}, {"measurement": "cell vitality", "setting": "[2]; 0.05 µM 60 min before CK cocktail 48 h", "result": "96% ± 3.1"}, {"measurement": "cell vitality", "setting": "[2]; 0.1 µM 60 min before CK cocktail 48 h", "result": "78% ± 3.5"}, {"measurement": "cell viability", "setting": "[2]; 1 µM 60 min before CK cocktail 48 h", "result": "no significant decrease in cell viability"}]}, {"smiles": "Nc1nc(NCCc2ccc(O)cc2)nc2nc(-c3ccco3)nn12", "note": "[ZM241385, reference compound]", "values": [{"measurement": "cell viability vs. control", "setting": "[6]; 0.01 µM, absence of CK cocktail (reference used at 60 min)", "result": "155% ± 1.9"}, {"measurement": "compensation of oxidative stress caused by the CK cocktail", "setting": "[7]", "result": "successfully compensated"}]}, {"smiles": "N#CCNc1nc(Cl)nc2c1ncn2C1CCCC1", "note": "[compound 3, 2-((2-Chloro-9-cyclopentyl-9H-purin-6-yl)amino)acetonitrile]", "values": [{"measurement": "Ki", "setting": "[1]", "result": "140 ± 35", "unit": "nM"}, {"measurement": "Ki", "setting": "[3]", "result": "118 ± 10", "unit": "nM"}, {"measurement": "cell vitality increase up to", "setting": "[8]; 400 µM, after CK cocktail (Figure 3)", "result": "93 ± 1.1", "unit": "%"}, {"measurement": "counteraction of CK cocktail effect (cell viability)", "setting": "[8]; 35, 65 and 400 µM, after CK cocktail", "result": "able to counteract the effect of the CK cocktail but to a lesser extent than compound 2"}, {"measurement": "% Residual Activity at 40 μM ± sd", "setting": "[4]", "result": "86 ± 1.6", "unit": "%"}, {"measurement": "CK1δ inhibition, in words", "setting": "[4]", "result": "inactive as a CK1δ inhibitor"}, {"measurement": "IC50", "setting": "[4]", "result": "> 40000", "unit": "nM"}, {"measurement": "Ki", "setting": "[5]", "result": "7 ± 0.01", "unit": "nM"}]}]}
